Test results reported in PubChem BioAssay (NCI).
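96-well plates; 48 h exposure; 5 concentrations. Endpoints by linear interpolation between flanking doses. Not reached: highest tested concentration assigned. Definition used: TGI = concentration required for complete inhibition of growth.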

How the values were obtained:
Test in all cases: NCI tumour cell line growth inhibition, 48 h
[1] = system: BT-549 breast
[2] = system: K-562 leukemia
[3] = system: MALME-3M melanoma
[4] = system: MDA-MB-435
[5] = system: NCI-H226 lung
[6] = system: NCI-H23 lung
[7] = system: OVCAR-3 ovarian
[8] = system: OVCAR-4 ovarian
[9] = system: RPMI-8226 leukemia
[10] = system: SF-295 CNS

Row | SMILES | TGI [1] | TGI [2] | TGI [3] | TGI [4] | TGI [5] | TGI [6] | TGI [7] | TGI [8] | TGI [9] | TGI [10]
1 | Cn1c(CO)ccc1-c1ccc(-c2ccc(CO)[se]2)[se]1 | > 91.4 µM | 98.5 µM | 17.7 µM | 45.6 µM | 2.56 µM | > 74.8 µM | 26.7 µM | 3.67 µM | 12.1 µM | > 100 µM
2 | O=c1[nH]nc(Nc2ccc(Cl)cc2)c2nnn(C3CCCCC3)c12 | > 100 µM | > 100 µM | > 100 µM | > 100 µM | > 100 µM | > 100 µM | > 100 µM | 43.1 µM | > 100 µM | > 100 µM
3 | O=C(/C=C/c1ccccc1)c1cc(CN2CCOCC2)c(O)c(CN2CCOCC2)c1 | 85.3 µM | 36.2 µM | – | 32.3 µM | 64.9 µM | 60 µM | 29.4 µM | – | 21.4 µM | 34.8 µM
4 | Cc1ccc(S(=O)(=O)N/N=c2/sc3ccccc3n2C)cc1 | – | > 100 µM | > 100 µM | > 100 µM | > 100 µM | > 100 µM | – | > 100 µM | > 100 µM | > 100 µM
5 | CC(=O)OC12c3ccccc3C(c3ccccc31)C1C(=O)N(N=C(C)C)C(=O)C12 (stereo unspecified) | > 100 µM | > 100 µM | > 100 µM | – | > 100 µM | > 100 µM | > 100 µM | > 100 µM | > 100 µM | > 100 µM
6 | C[n+]1c2ccccc2n2c3ccccc3c(NCCCn3ccnc3)c(C#N)c21 | > 100 µM | > 26 µM | 4.5 µM | 9.4 µM | 9.11 µM | 9.13 µM | > 25.2 µM | 7.42 µM | – | 17.4 µM
7 | Cc1cc2nc(N3C(=O)/C(=C/Cc4ccco4)N=C3c3ccccc3)sc2cc1C | > 100 µM | > 100 µM | – | 50.5 µM | – | – | > 100 µM | > 100 µM | > 100 µM | > 100 µM
8 | COc1cc2c(cc1OC)C1=C(C=O)c3ccc(OC)c(OC)c3C(O)N1CC2 (stereo unspecified) | 70.1 µM | – | 53.9 µM | > 100 µM | > 100 µM | 57.1 µM | > 100 µM | > 100 µM | 38.3 µM | > 100 µM
9 | COc1ccc(/C(C=O)=C(\Cl)c2ccc(OC)c(OC)c2)cc1 | – | > 100 µM | > 100 µM | – | > 100 µM | > 100 µM | > 100 µM | > 100 µM | > 100 µM | > 100 µM
10 | CC(C)=CC1C(C(=O)OCc2cc3c(cc2Cl)OCO3)C1(C)C (stereo unspecified) | > 100 µM | > 100 µM | 49 µM | > 100 µM | > 100 µM | > 100 µM | > 100 µM | > 100 µM | – | > 100 µM
11 | Cc1cccc2c1nc1n2C(=O)c2ccccc2-1 | > 100 µM | > 100 µM | > 100 µM | – | > 100 µM | > 100 µM | > 100 µM | > 100 µM | > 100 µM | > 100 µM
12 | CCOC(=O)CNC(=O)c1[nH]cnc1/N=N/N(C)C | – | > 100 µM | > 100 µM | – | > 100 µM | > 100 µM | > 100 µM | > 100 µM | > 100 µM | > 100 µM
13 | CC(C)(C)C(=O)c1c(O)c2ccccc2c2ccccc2c1=O | 91.6 µM | – | – | > 100 µM | > 100 µM | > 100 µM | > 100 µM | > 100 µM | – | > 100 µM
14 | O=C(/C=C\c1ccccc1)Oc1ccc(/C=C2\CCC/C(=C\c3ccc(OC(=O)/C=C\c4ccccc4)cc3)C2=O)cc1 | > 100 µM | – | – | > 100 µM | – | > 100 µM | > 100 µM | > 100 µM | > 100 µM | > 100 µM
15 | Cc1ccc(S(=O)(=O)NC(=O)Nc2ccc(C(=O)O)cc2)cc1 | > 100 µM | > 100 µM | > 100 µM | – | – | > 100 µM | – | > 100 µM | > 100 µM | > 100 µM
16 | CCCCCCCCCCCCCCCCNc1nc(=O)n(C2OC(C)C(O)C2O)cc1F (stereo unspecified) | 35.1 µM | – | 40.7 µM | 30.5 µM | 40.6 µM | 32.7 µM | 34.8 µM | 50.8 µM | 33.9 µM | 43 µM
17 | CN(C)c1cccc2c(S(=O)(=O)NCCN)cccc12 | – | > 100 µM | > 100 µM | > 100 µM | > 100 µM | > 100 µM | > 100 µM | > 100 µM | – | > 100 µM
18 | CCCCCCCCCCCCOCC(COP(=O)(O)OCCN=[N+]=[N-])OC(=O)CCCCCCCCCCC (stereo unspecified) | – | > 100 µM | > 100 µM | > 100 µM | – | > 100 µM | > 100 µM | > 100 µM | > 100 µM | > 100 µM
19 | COC(=O)[C@H](C)NC(=O)[C@H](NS(=O)(=O)c1nc2ccccc2s1)c1ccccc1 | > 100 µM | > 100 µM | – | > 100 µM | 30.6 µM | > 100 µM | – | > 100 µM | > 100 µM | > 100 µM
20 | CCOC(=O)C(Cc1ccc(N=NN(C)C)cc1)NC(=O)CC1c2ccccc2-c2ccccc21 (stereo unspecified) | – | > 100 µM | > 100 µM | – | > 100 µM | > 100 µM | > 100 µM | > 100 µM | > 100 µM | > 100 µM
21 | CCOC(=O)C1C(c2ccc(Br)cc2)N(Cc2ccccc2)C(c2ccc(Br)cc2)C(C(=O)OC)S1(=O)=O (stereo unspecified) | – | > 100 µM | > 100 µM | – | > 100 µM | > 100 µM | > 100 µM | > 100 µM | > 100 µM | > 100 µM
22 | CC(=O)CCC1(C(=O)OCC(C)C)CCCC1=O (stereo unspecified) | > 100 µM | > 100 µM | > 100 µM | > 100 µM | > 100 µM | > 100 µM | > 100 µM | > 100 µM | – | > 100 µM
23 | COC(=O)Nc1cc(OCCCOC(C)=O)c2[nH]c(C(=O)OC)cc2c1C[C@H](O)CO | > 100 µM | – | – | > 100 µM | > 100 µM | > 100 µM | > 100 µM | > 100 µM | > 100 µM | > 100 µM
